# How the values were obtained:
# Format in all cases: biochemical
# FLT3 = molecular target: T1, FLT3 (Homo sapiens, UniProt P36888); assay: Radiometric protein kinase assay, FLT3; conditions: 1 μM ATP; read-out: Inhibitory activity (IC50:μM) FLT3
# T1 construct: host or cells: Sf9 insect cells (baculovirus)
# T1 sequence (P36888 27-993): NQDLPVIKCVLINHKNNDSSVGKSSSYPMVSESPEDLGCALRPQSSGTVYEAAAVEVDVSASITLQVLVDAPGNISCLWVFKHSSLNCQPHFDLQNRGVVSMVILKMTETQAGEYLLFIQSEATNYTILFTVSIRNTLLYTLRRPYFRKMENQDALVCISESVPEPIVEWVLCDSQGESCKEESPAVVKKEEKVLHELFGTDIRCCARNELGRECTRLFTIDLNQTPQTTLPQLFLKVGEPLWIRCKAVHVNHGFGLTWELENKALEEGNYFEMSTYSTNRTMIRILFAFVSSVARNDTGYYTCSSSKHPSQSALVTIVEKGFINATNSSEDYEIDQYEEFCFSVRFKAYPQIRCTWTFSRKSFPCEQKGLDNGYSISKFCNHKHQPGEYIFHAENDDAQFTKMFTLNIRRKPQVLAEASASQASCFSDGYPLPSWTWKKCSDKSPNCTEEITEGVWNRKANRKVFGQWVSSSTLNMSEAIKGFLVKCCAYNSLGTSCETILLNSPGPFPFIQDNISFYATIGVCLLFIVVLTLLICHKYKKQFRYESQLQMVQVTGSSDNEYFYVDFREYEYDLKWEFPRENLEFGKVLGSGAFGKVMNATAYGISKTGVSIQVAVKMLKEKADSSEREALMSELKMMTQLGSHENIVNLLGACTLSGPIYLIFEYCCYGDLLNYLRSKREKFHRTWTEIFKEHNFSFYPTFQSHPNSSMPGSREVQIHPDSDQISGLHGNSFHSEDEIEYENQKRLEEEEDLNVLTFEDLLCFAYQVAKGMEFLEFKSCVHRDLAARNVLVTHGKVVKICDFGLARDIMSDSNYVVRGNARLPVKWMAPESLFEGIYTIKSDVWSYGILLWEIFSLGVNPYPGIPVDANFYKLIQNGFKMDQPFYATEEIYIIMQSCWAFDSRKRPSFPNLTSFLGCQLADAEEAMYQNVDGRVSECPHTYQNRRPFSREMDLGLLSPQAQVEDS
# Source text: (§1) All protein kinases were expressed in Sf9 insect cells as human recombinant GST-fusion proteins or His-tagged proteins by means of the baculovirus expression system. Kinases were purified by affinity chromatography using either GSH-agarose (Sigma) or Ni-NTH-agarose (Qiagen). The purity of each kinase was checked by SDS-PAGE/silver staining and the identity of each kinase was verified by western blot analysis with kinase specific antibodies or by mass spectroscopy.
# (§2) A radiometric protein kinase assay (^33PanQinase® Activity Assay) was used for measuring the kinase activity of the 24 protein kinases. All kinase assays were performed in 96-well FlashPlates™ from Perkin Elmer (Boston, Mass., USA) in a 50 μl reaction volume. The reaction cocktail was pipetted in 4 steps in the following order: • 20 μl of assay buffer • 5 μl of ATP solution (in H2O) • 5 μl of test compound (in 10% DMSO) • 10 μl of substrate/10 […] of enzyme solution (premixed)
# (§3) The assay for all enzymes contained 60 mM HEPES-NaOH, pH 7.5, 3 mM MgCl2, 3 mM MnCl2, 3 μM Na-orthovanadate, 1.2 mM DTT, 50 μg/ml PEG20000, 1 μM [γ-^33P]-ATP (approx. 5×10^05 cpm per well).
# (§4) For the 24 kinase assays, the following amounts of enzyme and substrate were used per well:
# (§5) The reaction cocktails were incubated at 30° C. for 80 minutes. The reaction was stopped with 50 μl of 2% (v/v) H3PO4, plates were aspirated and washed two times with 200 μl of 0.9% (w/v) NaCl or 200 μl H2O. Incorporation of ^33Pi was determined with a microplate scintillation counter (Microbeta Trilux, Wallac).
# (§6) The median value of the counts in column 1 (n=8) of each assay plate was defined as “low control”. This value reflects unspecific binding of radioactivity to the plate in the absence of a protein kinase but in the presence of the substrate. The median value of the counts in column 7 of each assay plate (n=8) was taken as the “high control”, i.e. full activity in the absence of any inhibitor. The difference between high and low control was taken as 100% activity.
# (§7) As part of the data evaluation the low control value from a particular plate was subtracted from the high control value as well as from all 80 “compound values” of the corresponding plate. The residual activity (in %) for each well of a particular plate was calculated by using the following formula: Res. Activity (%)=100×[(cpm of compound−low control)/(high control−low control)]
# (§8) The residual activities for each concentration and the compound IC50 values were calculated using Quattro Workflow V2.1.0.0 (Quattro Research GmbH, Munich, Germany; www.quattro-research.com). The model used was “Sigmoidal response (variable slope)” with parameters “top” fixed at 100% and “bottom” at 0%.
# VEGF-R2 = molecular target: T2, VEGF-R2 (Homo sapiens, UniProt P35968); assay: Radiometric protein kinase assay, VEGF-R2; conditions: 1 μM ATP; read-out: Inhibitory activity (IC50:μM) VEGF-R2
# T2 construct: host or cells: Sf9 insect cells (baculovirus)
# T2 sequence (P35968 20-1356): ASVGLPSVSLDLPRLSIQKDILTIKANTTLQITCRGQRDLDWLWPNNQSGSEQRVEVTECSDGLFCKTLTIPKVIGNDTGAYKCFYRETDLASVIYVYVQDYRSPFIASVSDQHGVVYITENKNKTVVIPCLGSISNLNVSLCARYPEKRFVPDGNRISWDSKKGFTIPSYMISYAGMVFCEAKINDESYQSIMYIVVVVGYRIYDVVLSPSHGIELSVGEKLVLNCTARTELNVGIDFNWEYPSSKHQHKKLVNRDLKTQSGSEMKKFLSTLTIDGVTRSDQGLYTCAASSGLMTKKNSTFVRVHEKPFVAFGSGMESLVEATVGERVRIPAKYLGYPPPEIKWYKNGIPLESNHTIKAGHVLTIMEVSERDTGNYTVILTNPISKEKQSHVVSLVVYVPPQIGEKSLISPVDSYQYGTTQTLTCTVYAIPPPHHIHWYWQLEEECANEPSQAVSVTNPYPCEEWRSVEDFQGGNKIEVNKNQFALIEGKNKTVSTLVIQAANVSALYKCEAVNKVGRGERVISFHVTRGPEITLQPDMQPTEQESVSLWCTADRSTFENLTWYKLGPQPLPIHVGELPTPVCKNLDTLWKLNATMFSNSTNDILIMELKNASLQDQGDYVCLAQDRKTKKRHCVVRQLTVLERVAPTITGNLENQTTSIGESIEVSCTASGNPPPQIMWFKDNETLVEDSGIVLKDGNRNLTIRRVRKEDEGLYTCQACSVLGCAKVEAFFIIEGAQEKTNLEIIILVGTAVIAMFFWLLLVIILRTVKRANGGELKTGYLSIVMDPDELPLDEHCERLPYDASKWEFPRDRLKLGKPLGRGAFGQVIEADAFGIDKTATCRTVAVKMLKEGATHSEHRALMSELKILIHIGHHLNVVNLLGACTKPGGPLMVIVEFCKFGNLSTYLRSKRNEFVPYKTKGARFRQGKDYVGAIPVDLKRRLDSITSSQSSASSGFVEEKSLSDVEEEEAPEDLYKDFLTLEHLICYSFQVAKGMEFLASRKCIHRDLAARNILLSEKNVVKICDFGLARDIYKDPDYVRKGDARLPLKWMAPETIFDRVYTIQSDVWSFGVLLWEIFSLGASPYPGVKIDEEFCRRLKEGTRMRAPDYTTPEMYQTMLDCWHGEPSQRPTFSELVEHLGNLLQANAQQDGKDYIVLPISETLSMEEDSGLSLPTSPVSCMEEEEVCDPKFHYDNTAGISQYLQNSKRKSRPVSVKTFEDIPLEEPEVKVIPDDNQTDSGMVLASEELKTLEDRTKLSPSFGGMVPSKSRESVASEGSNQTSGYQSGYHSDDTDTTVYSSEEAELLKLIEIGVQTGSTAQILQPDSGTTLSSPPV
# Source text: as §1, §2, §3, §4, §5, §6, §7, §8
# INS-R = molecular target: T3, INS-R (Homo sapiens, UniProt P06213); assay: Radiometric protein kinase assay, INS-R; conditions: 1 μM ATP; read-out: Inhibitory activity (IC50:μM) INS-R
# T3 construct: host or cells: Sf9 insect cells (baculovirus)
# T3 sequence (P06213 980-1382 limits assumed): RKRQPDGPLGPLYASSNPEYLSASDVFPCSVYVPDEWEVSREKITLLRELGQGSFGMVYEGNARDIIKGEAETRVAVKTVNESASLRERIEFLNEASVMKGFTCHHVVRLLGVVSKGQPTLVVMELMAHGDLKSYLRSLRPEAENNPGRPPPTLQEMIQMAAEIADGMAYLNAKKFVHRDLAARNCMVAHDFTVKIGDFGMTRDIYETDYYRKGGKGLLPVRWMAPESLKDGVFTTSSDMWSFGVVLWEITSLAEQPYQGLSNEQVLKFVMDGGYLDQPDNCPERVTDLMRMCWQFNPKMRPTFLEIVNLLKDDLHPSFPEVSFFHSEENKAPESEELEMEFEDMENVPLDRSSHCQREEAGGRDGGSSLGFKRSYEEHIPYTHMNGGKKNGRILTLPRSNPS
# Source text: as §1
# (§9) A radiometric protein kinase assay (^33PanQinase® Activity Assay) was used for measuring the kinase activity of the 24 protein kinases. […]
# (§10) The reaction cocktails were incubated at 30° C. for 80 minutes. […] Incorporation of ^33Pi was determined with a microplate scintillation counter (Microbeta Trilux, Wallac).
# (§11) The median value of the counts in column 1 (n=8) of each assay plate was defined as “low control”. This value reflects unspecific binding of radioactivity to the plate in the absence of a protein kinase but in the presence of the substrate. […]
# (§12) As part of the data evaluation the low control value from a particular plate was subtracted from the high control value as well as from all 80 “compound values” of the corresponding plate. The residual activity (in %) for each well of a particular plate was calculated by using the following formula: Res. Activity (%)=100×[(cpm of compound−low control)/(high control−low control)] […]
# ERBB2 = molecular target: T4, ERBB2 (Homo sapiens, UniProt P04626); assay: Radiometric protein kinase assay, ERBB2; conditions: 1 μM ATP; read-out: Inhibitory activity (IC50:μM) ERBB2
# T4 construct: host or cells: Sf9 insect cells (baculovirus)
# T4 sequence (P04626 23-1255): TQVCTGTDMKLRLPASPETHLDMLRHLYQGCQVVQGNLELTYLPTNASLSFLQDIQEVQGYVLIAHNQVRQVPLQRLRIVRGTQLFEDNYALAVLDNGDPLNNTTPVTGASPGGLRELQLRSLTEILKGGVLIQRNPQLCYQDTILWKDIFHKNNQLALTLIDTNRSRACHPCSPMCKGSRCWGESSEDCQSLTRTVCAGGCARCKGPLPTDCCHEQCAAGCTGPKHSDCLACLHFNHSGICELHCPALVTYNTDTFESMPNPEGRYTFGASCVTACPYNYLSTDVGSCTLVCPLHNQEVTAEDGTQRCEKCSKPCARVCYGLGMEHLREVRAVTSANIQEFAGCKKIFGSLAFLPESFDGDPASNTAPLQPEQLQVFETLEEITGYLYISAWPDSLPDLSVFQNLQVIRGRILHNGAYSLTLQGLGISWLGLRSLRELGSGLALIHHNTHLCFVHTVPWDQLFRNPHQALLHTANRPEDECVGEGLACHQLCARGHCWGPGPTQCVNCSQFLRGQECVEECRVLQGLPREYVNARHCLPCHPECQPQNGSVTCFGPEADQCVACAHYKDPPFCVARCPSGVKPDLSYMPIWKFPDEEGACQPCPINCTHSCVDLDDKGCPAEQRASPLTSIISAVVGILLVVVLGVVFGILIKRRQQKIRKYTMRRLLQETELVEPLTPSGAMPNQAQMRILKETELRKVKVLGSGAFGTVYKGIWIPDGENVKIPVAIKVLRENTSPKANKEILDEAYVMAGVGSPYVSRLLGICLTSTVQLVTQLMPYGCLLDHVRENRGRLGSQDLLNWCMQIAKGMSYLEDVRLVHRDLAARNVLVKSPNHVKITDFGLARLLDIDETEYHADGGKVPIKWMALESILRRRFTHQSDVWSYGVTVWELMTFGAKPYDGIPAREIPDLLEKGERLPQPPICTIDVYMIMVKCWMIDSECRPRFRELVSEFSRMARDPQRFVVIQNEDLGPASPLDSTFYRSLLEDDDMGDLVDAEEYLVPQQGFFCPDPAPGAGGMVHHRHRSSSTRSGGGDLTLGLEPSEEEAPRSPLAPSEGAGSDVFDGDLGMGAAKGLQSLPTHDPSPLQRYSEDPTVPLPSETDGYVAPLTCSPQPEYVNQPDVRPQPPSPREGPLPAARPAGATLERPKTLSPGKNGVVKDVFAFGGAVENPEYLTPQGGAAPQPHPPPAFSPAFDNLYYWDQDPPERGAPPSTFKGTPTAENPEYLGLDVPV
# Source text: as §1, §9, §10, §11, §12
# B-RAF-VE = molecular target: T5, B-RAF-VE (Homo sapiens, UniProt P15056, V600E); assay: Radiometric protein kinase assay, B-RAF-VE; conditions: 1 μM ATP; read-out: Inhibitory activity (IC50:μM) B-RAF-VE
# T5 construct: host or cells: Sf9 insect cells (baculovirus)
# T5 sequence (P15056 whole entry V600E): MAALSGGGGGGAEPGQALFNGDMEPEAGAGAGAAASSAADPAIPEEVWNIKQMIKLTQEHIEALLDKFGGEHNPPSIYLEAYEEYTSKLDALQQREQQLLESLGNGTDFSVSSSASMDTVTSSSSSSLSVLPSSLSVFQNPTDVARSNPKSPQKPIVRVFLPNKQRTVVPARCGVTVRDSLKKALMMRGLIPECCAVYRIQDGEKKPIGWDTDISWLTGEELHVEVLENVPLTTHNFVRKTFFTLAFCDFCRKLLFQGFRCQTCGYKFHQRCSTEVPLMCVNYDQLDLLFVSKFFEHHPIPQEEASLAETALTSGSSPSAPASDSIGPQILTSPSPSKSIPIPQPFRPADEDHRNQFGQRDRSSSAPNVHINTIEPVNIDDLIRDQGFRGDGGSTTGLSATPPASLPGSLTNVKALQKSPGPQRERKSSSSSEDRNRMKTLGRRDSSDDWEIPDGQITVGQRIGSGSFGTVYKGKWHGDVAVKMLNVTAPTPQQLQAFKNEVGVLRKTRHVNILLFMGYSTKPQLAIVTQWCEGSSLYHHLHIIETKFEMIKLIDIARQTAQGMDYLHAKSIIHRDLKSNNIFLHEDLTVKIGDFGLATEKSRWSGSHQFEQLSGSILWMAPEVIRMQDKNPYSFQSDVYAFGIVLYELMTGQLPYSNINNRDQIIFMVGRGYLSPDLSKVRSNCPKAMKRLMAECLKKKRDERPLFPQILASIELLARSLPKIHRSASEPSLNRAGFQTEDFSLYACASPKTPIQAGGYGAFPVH
# Source text: as §1, §9, §10, §11, §12
SMILES,IC50 (FLT3),IC50 (VEGF-R2),IC50 (INS-R),IC50 (ERBB2),IC50 (B-RAF-VE)
COC1CC/C=C/C[C@H](c2ccccc2)OC(=O)c2c(O)cc(O)c(Cl)c2CC(=O)C1 (some centres unmarked) [A-2],23 µM,19 µM,36 µM,16 µM,–
O=C1/C=C/CCC2OC2C[C@@H](Cc2ccccc2)OC(=O)c2c(O)cc(O)cc2C1 (some centres unmarked) [A-6],44 µM,25 µM,–,–,–
O=C1/C=C/CCC2OC2C[C@H](c2ccccc2)OC(=O)c2c(O)cc(O)c(Cl)c2C1 (some centres unmarked) [A-5],–,19 µM,–,–,50 µM

# Next, values leading:
IC50 (FLT3),IC50 (VEGF-R2),IC50 (INS-R),IC50 (ERBB2),IC50 (B-RAF-VE),SMILES
45 µM,30 µM,–,–,–,CC(C)[C@@H]1CC2OC2CC/C=C/C(=O)Cc2c(Cl)c(O)cc(O)c2C(=O)O1 (some centres unmarked) [A-4]
23 µM,20 µM,44 µM,24 µM,–,O=C1Cc2c(Cl)c(O)cc(O)c2C(=O)O[C@H](c2ccccc2)C/C=C/CCC(Cl)C1 (some centres unmarked) [A-3]
